# Results from patent US7981438B2, “Use of α-mangostin as a mosquito larvicide” (Wisconsin Alumni Research Foundation, priority 2007, dated 2011).
# Counter-ions that a name gives are not always drawn.
# Legend:
# complement C3 = settings: compared with phytoestrogens; FIG. 5, Hopert et al. 1998; cited from earlier work
# recombinant AeSCP-2 = biological target: T1, recombinant AeSCP-2 (Aedes aegypti, UniProt Q86PR3); assay: in vitro competition binding assay, NBD-cholesterol binding to AeSCP-2; set-up: species or system mosquito; settings: at 0.1 mM concentration
# T1 sequence (Q86PR3 1-110): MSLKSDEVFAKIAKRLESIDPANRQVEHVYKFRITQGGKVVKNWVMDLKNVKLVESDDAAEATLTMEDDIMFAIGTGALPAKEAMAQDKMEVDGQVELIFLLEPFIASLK
# Protocol: At 0.1 mM concentration, α-mangostin decreased NBD-cholesterol binding to AeSCP-2 by 23-29%. […] Specifically, FIG. 1 illustrates the inhibitory effect of α-mangostin on NBD-cholesterol binding to recombinant AeSCP-2. RFU=relative NBD-cholesterol fluorescent unit normalized with NBD-cholesterol background readings. The assays that were used included 5 μM NBD-cholesterol+5 uM AeSCP-2+increasing concentrations of α-mangostin in […] potassium phosphate buffer (pH 7.4).
# [1] = system: mosquito 4th instar larvae; assay: neutral lipid levels in the midgut of 4th instar larvae (Red Oil O staining); assay type: in vivo
# Protocol: The newly molted 4th instar larvae were treated with DMSO (the negative control), 25 μM SCPI-1 (the positive control), and 10 μM α-mangostin. The midgut tissue was dissected out at the indicated point in time after treatment initiation. The dissected treated midgut tissue was stained with Red Oil O for neutral lipids in situ.
# mosquito larvae = assay: toxicity assessment (larval mortality, Probit LD50) in mosquito larvae; assay type: in vivo; settings: for LD50 in 4th instar (ppm) / LD50 (uM) in 4th instar: 4th instar larvae
# Protocol: Compound was tested at concentrations within the range of 0.65-25.00 μM. Each assay included 60 larvae (1st instar or 4th instar) in 60 ml ddH2O containing either compound or control agent, mortality was recorded until 90% adult emerge rate. The percentage of mortality was transformed into Probit value and plotted against concentration to determine the LD50 value. Each assay was repeated at least three times with different batches of larvae. The mean and standard deviation values are listed above. ND=not determined due to very low mortality.
# Compounds were tested at concentrations within the range of 0.65-25.00 μM. Each assay included 60 larvae (1st instar or 4th instar) in 60 ml ddH2O containing either compound or control agent. Mortality was recorded until 90% adult emerge rate. The percentage of mortality was transformed into Probit value and plotted against concentrations to determine the LD50 value. Each assay was repeated at least three times with different batches of larvae.
# [2] = 1st instar larvae, same LD50 expressed in ppm
# [3] = 1st instar larvae, tested 0.65-25.00 μM, mean ± SD
# [4] = tested 0.65-25.00 μM, mean ± SD
Molecule,"reproductive side effects in mammals, measured by formation of complement C3 (complement C3)",decrease of NBD-cholesterol binding to AeSCP-2 (recombinant AeSCP-2),"neutral lipids in the midgut ([1]; 10 μM α-mangostin, after 24 hours treatment, 4th instar larvae)",LD50 in 1st instar (ppm) (mosquito larvae; [2]),LD50 (uM) in 1st instar (mosquito larvae; [3]),LD50 in 4th instar (ppm) (mosquito larvae; same LD50 expressed in ppm),LD50 (uM) in 4th instar (mosquito larvae; [4]),"LD50 (uM) in 1st instar (mosquito larvae; mosquito, in vivo)","LD50 in 1st instar (ppm) (mosquito larvae; mosquito, in vivo)","fraction of midgut neutral lipids depleted ([1]; 25 μM SCPI-1, 24 hour-old 4th instar larvae)"
"COc1c(O)cc2oc3cc(O)c(CC=C(C)C)c(O)c3c(=O)c2c1CC=C(C)C [α-mangostin, 3,6,8-Trihydroxy-2-methoxy-1,7-bis(3-methylbut-2-enyl)xanthen-9-one]",does not induce reproductive side effects,23-29%,scant amounts of neutral lipids,1.12 ppm,2.73 ± 2.46 µM,"(or, 4.18 ppm)",10.18 ± 1.49 µM,,,
COc1c2c(c(CC=C(C)C)c3oc(=O)c(-c4ccc(O)cc4)c(O)c13)OC(C)(C)C=C2 [lonchocarpic acid],,,,5.21 ppm,11.99 ± 1.93 µM,,,,,
COc1ccc(-c2cc(=O)c3c(O)cc(O)c(-c4cc(-c5cc(=O)c6c(O)cc(O)cc6o5)ccc4OC)c3o2)cc1 [isoginkgetin],,,,,,,,11.29 ± 3.00 µM,6.60 ppm,
obtusauione,,,,1.62 ppm,6.36 ± 1.70 µM,,,,,
"CC(=O)Nc1ccc(Nc2nc(-c3ccc(Cl)c(Cl)c3)cs2)cc1 [SCPI-1, N-(4-{[4-(3,4-dichlorophenyl)-1,3-thiazol-2-yl]amino}phenyl)acetamide hydrobromide, reference compound]",,,,1.93 ppm,4.21 ± 0.38 µM,"(or, 11.04 ppm)",24.04 ± 4.16 µM,,,about ½
